Reference: the supplement of paper PMC10307832

What was measured:
Assay in all cases: relative viability (nuclei count vs DMSO), 5 days (fraction); higher = more cells survive
[1] = test system: NCI-H1651
How it was run: (§1)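 Nuclei were stained with Hoechst during a one-step fixation (final 0.05% Triton X-100, 1% formaldehyde, 1 ug/ml Hoechst) carried out 5 days after dosing, then counted on 4× images. The cells, lung cancer lines in 1536-well plates, had been dosed by pin tool the day after seeding with one drug alone or a fixed anchor-drug dose plus five library-drug doses (not always all listed) in √10 steps. Relative viability is the nuclei count in treated wells divided by that in vehicle wells, and each value is the median of duplicate plates.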

[2] = test system: LC-2-ad
How it was run: as §1

[3] = test system: NCI-H650
How it was run: as §1

[4] = test system: HARA
How it was run: as §1

[5] = test system: NCI-H358
How it was run: as §1

[6] = test system: COR-L23
How it was run: as §1

[7] = test system: UMC-11
How it was run: as §1

[8] = test system: NCI-H838
How it was run: as §1

[9] = test system: SW 1573
How it was run: as §1

[10] = test system: NCI-H1993
How it was run: as §1

[11] = test system: NCI-H2085
How it was run: as §1

[12] = test system: ABC-1
How it was run: as §1

Clc1ccc(Nc2nnc(Cc3ccncc3)c3ccccc23)cc1 [Vatalanib] + CCNC(=O)c1noc(-c2cc(C(C)C)c(O)cc2O)c1-c1ccc(CN2CCOCC2)cc1 [Luminespib] (partner 0.01 µM)
relative viability ([1]; first compound 0.04 µM): 0.852
relative viability ([1]; first compound 0.1265 µM): 0.891
relative viability ([1]; first compound 0.4 µM): 0.878
relative viability ([1]; first compound 1.265 µM): 0.869
relative viability ([1]; first compound 4 µM): 0.915
relative viability ([2]; first compound 0.04 µM): 1.1
relative viability ([2]; first compound 0.1265 µM): 1.04
relative viability ([2]; first compound 1.265 µM): 0.997
relative viability ([2]; first compound 4 µM): 0.948
relative viability ([3]; first compound 0.04 µM): 0.821
relative viability ([3]; first compound 0.1265 µM): 0.628
relative viability ([3]; first compound 1.265 µM): 0.736
relative viability ([3]; first compound 4 µM): 0.781
relative viability ([4]; first compound 0.04 µM): 0.682
relative viability ([4]; first compound 0.1265 µM): 0.617
relative viability ([4]; first compound 0.4 µM): 0.669
relative viability ([4]; first compound 1.265 µM): 0.738
relative viability ([4]; first compound 4 µM): 0.591
relative viability ([5]; first compound 0.04 µM): 0.498
relative viability ([5]; first compound 0.1265 µM): 0.381
relative viability ([5]; first compound 0.4 µM): 0.353
relative viability ([5]; first compound 1.265 µM): 0.345
relative viability ([5]; first compound 4 µM): 0.308
relative viability ([6]; first compound 0.04 µM): 0.715
relative viability ([6]; first compound 0.1265 µM): 0.666
relative viability ([6]; first compound 0.4 µM): 0.835
relative viability ([6]; first compound 1.265 µM): 0.646
relative viability ([6]; first compound 4 µM): 0.588
relative viability ([7]; first compound 0.04 µM): 1.08
relative viability ([7]; first compound 0.1265 µM): 1.11
relative viability ([7]; first compound 0.4 µM): 0.996
relative viability ([7]; first compound 1.265 µM): 1.02
relative viability ([7]; first compound 4 µM): 1.01
relative viability ([8]; first compound 0.04 µM): 0.326
relative viability ([8]; first compound 0.1265 µM): 0.267
relative viability ([8]; first compound 0.4 µM): 0.244
relative viability ([8]; first compound 1.265 µM): 0.305
relative viability ([8]; first compound 4 µM): 0.378
relative viability ([9]; first compound 0.04 µM): 0.425
relative viability ([9]; first compound 0.1265 µM): 0.321
relative viability ([9]; first compound 0.4 µM): 0.302
relative viability ([9]; first compound 1.265 µM): 0.437
relative viability ([9]; first compound 4 µM): 0.264
relative viability ([10]; first compound 0.04 µM): 0.955
relative viability ([10]; first compound 0.1265 µM): 0.958
relative viability ([10]; first compound 0.4 µM): 0.865
relative viability ([10]; first compound 1.265 µM): 0.71
relative viability ([10]; first compound 4 µM): 0.82
relative viability ([11]; first compound 0.04 µM): 0.474
relative viability ([11]; first compound 0.1265 µM): 0.529
relative viability ([11]; first compound 0.4 µM): 0.464
relative viability ([11]; first compound 1.265 µM): 0.609
relative viability ([11]; first compound 4 µM): 0.469
relative viability ([12]; first compound 0.04 µM): 0.822
relative viability ([12]; first compound 1.265 µM): 0.63
